The subject of data set [1] is Mus musculus. Kind of data set: Antagonist activity assessed as inhibition of estrogen-stimulated uterine weight gain in ovariectomized mouse at 10 mg/kg, po. It is filed as functional.
Data set [2] deals with Mus musculus. Nature of the data set: Antagonist activity assessed as inhibition of estrogen-stimulated uterine weight gain in ovariectomized mouse at 30 mg/kg, po. It is filed as functional.
For data set [3], the system named is Mus musculus. Kind of data set: Antagonist activity assessed as inhibition of estrogen-stimulated uterine weight gain in ovariectomized mouse at 3 mg/kg, po. It is filed as functional.
Data set [4] addresses T1, Estrogen receptor (Homo sapiens) (UniProt P03372).
T1 sequence (whole entry): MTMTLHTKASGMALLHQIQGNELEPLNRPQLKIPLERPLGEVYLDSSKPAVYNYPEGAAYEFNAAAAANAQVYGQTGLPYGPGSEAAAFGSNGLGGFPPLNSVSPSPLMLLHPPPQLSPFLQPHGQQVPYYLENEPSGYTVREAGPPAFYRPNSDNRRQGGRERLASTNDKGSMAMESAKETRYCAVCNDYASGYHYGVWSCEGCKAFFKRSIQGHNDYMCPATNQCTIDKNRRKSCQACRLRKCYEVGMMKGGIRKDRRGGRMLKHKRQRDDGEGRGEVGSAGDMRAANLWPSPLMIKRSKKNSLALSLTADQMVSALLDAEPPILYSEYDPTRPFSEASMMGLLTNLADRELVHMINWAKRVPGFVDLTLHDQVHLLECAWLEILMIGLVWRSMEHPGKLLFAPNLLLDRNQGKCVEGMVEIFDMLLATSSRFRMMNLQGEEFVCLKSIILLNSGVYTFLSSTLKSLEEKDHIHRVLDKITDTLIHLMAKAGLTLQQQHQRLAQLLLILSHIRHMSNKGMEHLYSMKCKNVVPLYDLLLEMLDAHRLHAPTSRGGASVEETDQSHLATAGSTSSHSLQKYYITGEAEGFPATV
Kind of data set: Displacement of [3H]estradiol from human recombinant ERalpha relative to estradiol. For orientation: In a radioligand displacement assay an active substance lowers the binding of a labelled ligand.

In data set [5] the test system is Mus musculus. Kind of data set: Agonist activity assessed as increase in uterine weight in ovariectomized mouse at 10 mg/kg, sc. It is filed as functional. As to conditions: route subcutaneous.
Data set [6] deals with Mus musculus. Kind of data set: Antagonist activity assessed as inhibition of estrogen-stimulated uterine weight gain in ovariectomized mouse at 10 mg/kg, sc. It is filed as functional. To be noted: route subcutaneous.
Data set [7] concerns Mus musculus. Nature of the data set: Antagonist activity assessed as inhibition of estrogen-stimulated uterine weight gain in ovariectomized mouse at 50 mg/kg, po. It is filed as functional.
A short description of data set [8]: AUC in duodenally dosed Sprague-Dawley rat peripheral blood at 10 mg/kg. It is filed as ADME, organism-based. More on the design: dose 10 mg/kg, route intraduodenal.
Data set [9] concerns Rattus norvegicus. Kind of data set: (§1) AUC in Sprague-Dawley rat at 20 mg/kg, po. It is filed as ADME, organism-based, Plasma. Also noted: dose 20 mg/kg, route oral. As to conditions: in vivo.
The nature of data set [10]: AUC in duodenally dosed Sprague-Dawley rat portal vein at 10 mg/kg. It is filed as ADME, organism-based. More on the design: dose 10 mg/kg, route intraduodenal. To be noted: portal vein plasma.
The test system of data set [11] is Rattus norvegicus. Nature of the data set: AUC in Sprague-Dawley rat at 10 mg/kg, iv. Also noted: dose 10 mg/kg, route intravenous. To be noted: in vivo. It is filed as ADME, organism-based, Plasma.
A short description of data set [12]: Bioavailability in Sprague-Dawley rat. It is filed as ADME, organism-based. As to conditions: in vivo.
The nature of data set [13]: as §1. It is filed as ADME, organism-based, Plasma. As to conditions: Sprague-Dawley, plasma. Also noted: dose 20 mg/kg, route oral.

The inhibition in vivo is the drop in the measured response relative to a control, in per cent. As a reminder, the AUC is the area under the concentration-time curve, a measure of exposure. A word on the bioavailability: it is the share of a dose that reaches the circulation, judged against a reference dose that is usually intravenous.

In the case of `C[C@]1(c2ccc(O)cc2)CSc2cc(O)ccc2[C@H]1CCCCCCCCCC(CCCC(F)(F)C(F)(F)C(F)(F)C(F)(F)F)C(=O)O` (some centres undefined), the inhibition in vivo at 10 mg/kg in data set [1] turned out to be 86%. The inhibition in vivo at 30 mg/kg in data set [2] is 100%. In [3], the inhibition in vivo at 3 mg/kg stood at 55%. Further, in data set [4], the RBA amounted to 0.4%.

On to `C[C@]1(c2ccc(O)cc2)CSc2cc(O)ccc2[C@H]1CCCCCCCCCC(CCCCC(F)(F)C(F)(F)F)C(=O)O` (some centres undefined), for which the inhibition in vivo at 10 mg/kg in data set [1] worked out at 79%. Also, the inhibition in vivo at 30 mg/kg in [2] stood at 96%. Also, the inhibition in vivo at 3 mg/kg in data set [3] worked out at 53%. The RBA in data set [4] turned out to be 0.2%.

Regarding `C[C@]1(c2ccc(O)cc2)CSc2cc(O)ccc2[C@H]1CCCCCCCCCC(CCC(F)(F)C(F)(F)C(F)(F)C(F)(F)F)C(=O)O` (some centres undefined), the inhibition in vivo at 10 mg/kg in [1] came to 85%. Further, in [2], the inhibition in vivo at 30 mg/kg came out at 99%. In addition, the inhibition in vivo at 3 mg/kg in [3] is 38%. Besides, the RBA in data set [4] came out at 0.3%.

Turning to `C[C@]1(c2ccc(O)cc2)COc2cc(O)ccc2[C@H]1CCCCCCCCCNC(=O)NCCCC(F)(F)C(F)(F)F`, the figures for the inhibition in vivo at 10 mg/kg in data set [1] and in [6] were 1% and 77%, respectively. In addition, the Activity in data set [5] is recorded as 10%. Also, the RBA in data set [4] worked out at 57%.

Regarding `C[C@]1(c2ccc(O)cc2)CSc2cc(O)ccc2[C@H]1CCCCCCCCCNS(=O)(=O)CCCC(F)(F)C(F)(F)F`, the inhibition in vivo at 10 mg/kg in [1] turned out to be 31%; in data set [6], 99%. The inhibition in vivo at 50 mg/kg in data set [7] worked out at 73%. Also, in data set [5], the Activity is listed as 3%. Also, in data set [4], the RBA was 52%.

Take `C[C@]1(c2ccc(O)cc2)CSc2cc(O)ccc2[C@H]1CCCCCCCCC(CCCC(F)(F)C(F)(F)F)C(=O)O` (some centres undefined): the AUC came to 2040 ng·h/mL in data set [8], 209000 ng·h/mL in [9], 2510 ng·h/mL in data set [10] and 228000 ng·h/mL in [11]. Further, the inhibition in vivo at 10 mg/kg in [1] turned out to be 77%; in [6], 95%. Besides, in data set [2], the inhibition in vivo at 30 mg/kg worked out at 94%. Moreover, the Activity in data set [5] turned out to be 1%. Moreover, in data set [3], the inhibition in vivo at 3 mg/kg turned out to be 41%. Also, in data set [4], the RBA worked out at 0.8%. For the same compound, the bioavailability in data set [12] amounted to 46%.

For `C[C@]1(c2ccc(O)cc2)CSc2cc(O)ccc2[C@H]1CCCCCCCCC(CCCCCC(F)(F)C(F)(F)F)C(=O)O` (some centres undefined), the inhibition in vivo at 10 mg/kg in data set [1] came to 86%. Moreover, the inhibition in vivo at 30 mg/kg in [2] was found to be 94%. The inhibition in vivo at 3 mg/kg in [3] was found to be 52%. Also, the RBA in [4] came to 0.8%.

Turning to `C[C@]1(c2ccc(O)cc2)CSc2cc(O)ccc2[C@H]1CCCCCCCCCC(CCCC(F)(F)C(F)(F)F)C(=O)O` (some centres undefined), the inhibition in vivo at 10 mg/kg in [1] was 81%. Besides, the inhibition in vivo at 3 mg/kg in data set [3] worked out at 45%. In addition, the RBA in data set [4] was 0.9%.

As to `C[C@]1(c2ccc(O)cc2)CSc2cc(O)ccc2[C@H]1CCCCCCCCC(CCCC(F)(F)C(F)(F)C(F)(F)C(F)(F)F)C(=O)O` (some centres undefined), the inhibition in vivo at 10 mg/kg in [1] came to 93%. In addition, in data set [2], the inhibition in vivo at 30 mg/kg is 99%. In addition, in data set [3], the inhibition in vivo at 3 mg/kg came to 61%. Also, the RBA in data set [4] amounted to 0.3%.

Consider `C[C@]1(c2ccc(O)cc2)CSc2cc(O)ccc2[C@H]1CCCCCCCCC(CCC(F)(F)C(F)(F)C(F)(F)C(F)(F)F)C(=O)O` (some centres undefined), for which the inhibition in vivo at 10 mg/kg in data set [1] is 93%. Also, the inhibition in vivo at 30 mg/kg in data set [2] turned out to be 96%. For the same compound, in data set [3], the inhibition in vivo at 3 mg/kg came out at 63%. Further, the RBA in [4] stood at 0.6%.

Consider `C[C@]12CC[C@@H]3c4ccc(O)cc4C[C@@H](CCCCCCCCC[S+]([O-])CCCC(F)(F)C(F)(F)F)[C@H]3[C@@H]1CC[C@@H]2O` (some centres undefined) [FULVESTRANT], for which the area under the curve (AUC) was determined as 7 ng·h/mL in data set [8], 1670 ng·h/mL in data set [9], 56 ng·h/mL in data set [10] and 5300 ng·h/mL in data set [11]. Further, the inhibition in vivo at 10 mg/kg in [1] worked out at 54%; in data set [6], 95%. In [2], the inhibition in vivo at 30 mg/kg was 72%. In addition, the inhibition in vivo at 50 mg/kg in [7] turned out to be 86%. Further, the Activity in data set [5] was -1%. Also, the inhibition in vivo at 3 mg/kg in data set [3] stood at 29%. Besides, in data set [4], the RBA was found to be 138%. In data set [12], this compound had a bioavailability of 16%.

Consider `C[C@]1(c2ccc(O)cc2)COc2cc(O)ccc2[C@H]1CCCCCCCCCNS(=O)(=O)NCCCC(F)(F)C(F)(F)F`, for which the figures for the inhibition in vivo at 10 mg/kg in data set [1] and in [6] were 41% and 100%, respectively. Also, in data set [7], the inhibition in vivo at 50 mg/kg was found to be 69%. The Activity in data set [5] came to 1%. The RBA in data set [4] came out at 42%.

In the case of `C[C@]1(c2ccc(O)cc2)CSc2cc(O)ccc2[C@H]1CCCCCCCCCCC(CCCC(F)(F)C(F)(F)F)C(=O)O` (some centres undefined), the inhibition in vivo at 10 mg/kg in data set [1] is 62%. In addition, in data set [4], the RBA was 0.2%.

Turning to `C[C@]1(c2ccc(O)cc2)CSc2cc(O)ccc2[C@H]1CCCCCCCCC[S+]([O-])CCCC(F)(F)C(F)(F)F` (some centres undefined), the AUC in data set [8] was 13 ng·h/mL; in data set [13] it was 3590 ng·h/mL; in data set [10], 88 ng·h/mL; in data set [11] it was 8220 ng·h/mL. Also, the inhibition in vivo at 10 mg/kg in data set [1] is 51%; in [6], 101%. Besides, the inhibition in vivo at 50 mg/kg in [7] turned out to be 94%. In addition, the Activity in [5] is -2%. In [4], the RBA came out at 200%. This compound gave a bioavailability in data set [12] of 22%.

As for `COC(=O)C(CCCCCCCC[C@@H]1c2ccc(O)cc2SC[C@]1(C)c1ccc(O)cc1)CCCC(F)(F)C(F)(F)F` (some centres undefined), the inhibition in vivo at 10 mg/kg was 40% in [1] and 52% in data set [6]. For the same compound, the Activity in data set [5] is given as -1%. The RBA in data set [4] came out at 7%.

With `C[C@]1(c2ccc(O)cc2)COc2cc(O)ccc2[C@H]1CCCCCCCCC[S+]([O-])CCCC(F)(F)C(F)(F)F` (some centres undefined), the inhibition in vivo at 10 mg/kg in data set [1] was 66%; in data set [6], 94%. Moreover, in data set [7], the inhibition in vivo at 50 mg/kg was 88%. Besides, the Activity in data set [5] was 1%. Also, in data set [4], the RBA was found to be 96%.

Turning to `C[C@]1(c2ccc(O)cc2)CSc2cc(O)ccc2[C@H]1CCCCCCCC(CCCC(F)(F)C(F)(F)F)C(=O)O` (some centres undefined), the inhibition in vivo at 10 mg/kg in data set [1] came to 20%. Besides, the RBA in data set [4] amounted to 0.5%.

Consider `C[C@]1(c2ccc(O)cc2)CSc2cc(O)ccc2[C@H]1CCCCCCCCCNC(=O)NS(=O)(=O)CCCC(F)(F)C(F)(F)F`, for which the Activity in data set [5] stood at 8%. Further, the RBA in [4] is 1.2%. The inhibition in vivo at 10 mg/kg in [6] is 33%.

Take `C[C@]1(c2ccc(O)cc2)CSc2cc(O)ccc2[C@H]1CCCCCCCCC(CCCCC(F)(F)C(F)(F)F)C(=O)O` (some centres undefined): the inhibition in vivo at 10 mg/kg in data set [1] was 87%. Also, the inhibition in vivo at 30 mg/kg in data set [2] was 97%. Besides, the inhibition in vivo at 3 mg/kg in [3] is 69%. In addition, the RBA in data set [4] was determined as 1.3%.

Values taken from ChEMBL document CHEMBL1146841, “Discovery of thiochroman derivatives bearing a carboxy-containing side chain as orally active pure antiestrogens” (Bioorg Med Chem Lett, 2006).
